Patent publication US20230130766A1 (SALK INSTITUTE FOR BIOLOGICAL STUDIES, priority 2020, published 2023)
pIC50: −log10 of the molar value.

Each molecule was assayed against T1, ULK1 (Homo sapiens, UniProt O75385) (assay: ULK1 inhibition assay). Conditions: * = tested as a mixture of regioisomers.
T1 sequence (O75385 1-1050): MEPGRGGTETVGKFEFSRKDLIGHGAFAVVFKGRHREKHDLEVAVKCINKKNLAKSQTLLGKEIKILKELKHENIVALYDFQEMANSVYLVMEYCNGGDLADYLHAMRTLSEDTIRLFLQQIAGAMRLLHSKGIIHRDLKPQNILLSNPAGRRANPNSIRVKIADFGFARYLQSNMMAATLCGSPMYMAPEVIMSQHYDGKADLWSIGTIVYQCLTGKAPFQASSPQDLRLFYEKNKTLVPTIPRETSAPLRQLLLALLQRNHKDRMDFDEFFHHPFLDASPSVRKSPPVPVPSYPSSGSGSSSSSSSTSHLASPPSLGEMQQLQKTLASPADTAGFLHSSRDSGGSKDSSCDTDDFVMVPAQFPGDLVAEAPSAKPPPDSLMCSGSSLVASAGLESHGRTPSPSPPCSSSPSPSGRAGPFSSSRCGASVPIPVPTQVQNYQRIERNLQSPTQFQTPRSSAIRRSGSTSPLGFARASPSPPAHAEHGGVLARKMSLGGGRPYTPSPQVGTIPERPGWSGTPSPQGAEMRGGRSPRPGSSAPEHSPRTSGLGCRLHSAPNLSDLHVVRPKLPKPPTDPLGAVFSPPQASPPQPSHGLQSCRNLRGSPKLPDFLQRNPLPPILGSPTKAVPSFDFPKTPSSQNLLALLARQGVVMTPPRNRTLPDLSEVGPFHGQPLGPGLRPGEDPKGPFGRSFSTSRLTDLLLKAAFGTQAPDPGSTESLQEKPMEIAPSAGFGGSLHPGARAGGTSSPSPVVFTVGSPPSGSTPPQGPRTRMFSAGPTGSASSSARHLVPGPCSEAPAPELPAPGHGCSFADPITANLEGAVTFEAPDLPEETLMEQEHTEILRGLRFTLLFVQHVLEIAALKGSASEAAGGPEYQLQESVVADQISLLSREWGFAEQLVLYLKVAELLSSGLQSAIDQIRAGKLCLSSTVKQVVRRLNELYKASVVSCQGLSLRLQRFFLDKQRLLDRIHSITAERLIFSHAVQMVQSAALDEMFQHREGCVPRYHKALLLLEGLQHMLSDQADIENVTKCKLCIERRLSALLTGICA
Format: biochemical

| pIC50 | Structure (SMILES) |
| --- | --- |
| > 6.70 | O=C1CCc2cc(Nc3ncc(C(F)(F)F)c(Nc4ccc5c(c4)OCO5)n3)ccc2N1 [124*] |
| < 5.70 | COc1cccc(Nc2nc(Nc3ccc(OC(F)(F)F)c(Cl)c3)ncc2C(F)(F)F)c1 [136*] |
| 5.70 to 6.70 | COc1cccc(Nc2nc(Nc3cc4ccccc4cc3O)ncc2C(F)(F)F)c1 [137*] |
| > 6.70 | NC(=O)c1cccc(Nc2ncc(C(F)(F)F)c(Nc3ccc4c(c3)OCO4)n2)c1 [138*] |
| > 6.70 | FC(F)(F)c1cnc(Nc2ccc(-n3cccc3)cc2)nc1Nc1ccc2c(c1)OCO2 [139*] |
| > 6.70 | FC(F)(F)c1cnc(Nc2ccc3c(c2)CCC3)nc1Nc1ccc2c(c1)OCO2 [140*] |
| > 6.70 | COc1ccc(Nc2ncc(C(F)(F)F)c(Nc3ccc4c(c3)OCO4)n2)cc1 [144*] |
| < 5.70 | FC(F)(F)c1cnc(Nc2cccc(Cl)c2Cl)nc1Nc1ccc2c(c1)OCO2 [147*] |
| < 5.70 | FC(F)(F)c1cnc(Nc2cccc(Oc3ccccc3)c2)nc1Nc1ccc2c(c1)OCO2 [149*] |
| > 6.70 | O=C1CCc2cc(Nc3ncc(C(F)(F)F)c(Nc4ccccc4)n3)ccc2N1 [157*] |
| > 6.70 | CNC(=O)c1ccccc1Nc1nc(Nc2ccc(N3CCOCC3)cc2OC)ncc1Cl [Compound 12] |
| > 6.70 | CNC(=O)c1ccccc1Nc1nc(Nc2cc(OC)c(OC)c(OC)c2)ncc1Cl [Compound 15] |
| > 6.70 | CNC(=O)c1ccccc1Nc1nc(Nc2cc(OC)ccc2C)ncc1Cl [Compound 16] |
| > 6.70 | CNC(=O)c1ccccc1Nc1nc(Nc2cc(OC)ccc2C)ncc1Br [Compound 17] |
| > 6.70 | CNC(=O)c1ccccc1Nc1nc(Nc2ccc3c(c2)CCC(=O)N3)ncc1Cl [Compound 19] |
| > 6.70 | CNC(=O)c1ccccc1Nc1nc(Nc2ccc3c(c2)CCC(=O)N3)ncc1Br [Compound 20] |
| > 6.70 | CNC(=O)c1ccccc1Nc1nc(Nc2ccc3c(c2)CC(=O)N3)ncc1Cl [Compound 21] |
| > 6.70 | COc1cc(Nc2ncc(Br)c(Nc3ccccn3)n2)cc(OC)c1OC [Compound 22] |
| > 6.70 | CNC(=O)c1ccccc1Nc1nc(Nc2ccc3[nH]ccc3c2)ncc1Br [Compound 23] |
| > 6.70 | COc1ccc(Nc2nc(Nc3cc(OC)c(OC)c(OC)c3)ncc2Cl)cn1 [Compound 24] |
| > 6.70 | COc1ccc(Nc2nc(Nc3cc(OC)c(OC)c(OC)c3)ncc2Br)cn1 [Compound 25] |
| < 5.70 | COc1ccc(Nc2nc(Nc3ccc(N4CCOCC4)cc3OC)ncc2Cl)cn1 [Compound 27] |
| > 6.70 | COc1ccc(Nc2nc(Nc3ccc4[nH]ccc4c3)ncc2Br)cn1 [Compound 30] |
| > 6.70 | COc1cc(Nc2ncc(C(F)(F)F)c(NCc3cccc(S(C)(=O)=O)c3)n2)cc(OC)c1OC [Compound 31] |
| < 5.70 | COc1ccc(C)c(Nc2ncc(Cl)c(Nc3ccc(OC)nc3)n2)c1 [Compound 34] |

| pIC50 | Structure (SMILES) |
| --- | --- |
| < 5.70 | COc1ccc(C)c(Nc2ncc(Br)c(Nc3ccc(OC)nc3)n2)c1 [Compound 35] |
| < 5.70 | CNC(=O)c1ccccc1Nc1nc(Nc2cc(OC)c(OC)c(OC)c2)ncc1C(F)(F)F [Compound 36] |
| > 6.70 | COc1ccc(Nc2nc(Nc3cc(OC)c(OC)c(OC)c3)ncc2C(F)(F)F)cn1 [Compound 37] |
| > 6.70 | CNC(=O)c1ccccc1Nc1nc(Nc2ccc(N3CCOCC3)cc2OC)ncc1C(F)(F)F [Compound 39] |
| < 5.70 | COc1ccc(Nc2nc(Nc3ccc(N4CCOCC4)cc3OC)ncc2C(F)(F)F)cn1 [Compound 40] |
| < 5.70 | COc1ccc(C)c(Nc2ncc(Cl)c(NCc3cccc(S(C)(=O)=O)c3)n2)c1 [Compound 41] |
| > 6.70 | CNC(=O)c1ccccc1Nc1nc(Nc2cc(OC)ccc2C)ncc1C(F)(F)F [Compound 42] |
| > 6.70 | O=C1CCc2cc(Nc3ncc(C(F)(F)F)c(NCc4ccccc4)n3)ccc2N1 [Compound 43] |
| > 6.70 | CNC(=O)c1ccccc1Nc1nc(Nc2cccc(OC)c2)ncc1Cl [Compound 44] |
| < 5.70 | COc1ccc(C)c(Nc2ncc(Cl)c(Nc3cccc(S(=O)(=O)N(C)C)c3)n2)c1 [Compound 45] |
| > 6.70 | CNC(=O)c1ccccc1Nc1nc(Nc2ccc3c(c2)OCO3)ncc1Cl [Compound 49] |
| < 5.70 | COc1ccc(C)c(Nc2ncc(C(F)(F)F)c(NCc3cccc(S(C)(=O)=O)c3)n2)c1 [Compound 50] |
| > 6.70 | CNC(=O)c1ccccc1Nc1nc(Nc2ccc3c(c2)OCCO3)ncc1Cl [Compound 51] |
| < 5.70 | COc1cc(N2CCOCC2)ccc1Nc1ncc(C(F)(F)F)c(NCc2cccc(S(C)(=O)=O)c2)n1 [Compound 52] |
| < 5.70 | CNC(=O)c1ccccc1Nc1nc(Nc2ccccc2C)ncc1Cl [Compound 53] |
| < 5.70 | COc1ccc(C)c(Nc2ncc(Cl)c(Nc3cccc(CC#N)c3)n2)c1 [Compound 54] |
| < 5.70 | COc1ccc(C)c(Nc2ncc(Cl)c(Nc3nccc(C)n3)n2)c1 [Compound 55] |
| < 5.70 | CS(=O)(=O)c1cccc(CNc2nc(Nc3ccc4c(c3)CCC(=O)N4)ncc2F)c1 [Compound 56] |
| > 6.70 | CNC(=O)c1ccccc1Nc1nc(Nc2cc3c(cc2C)OCO3)ncc1Cl [Compound 57] |
| < 5.70 | O=C1CCc2cc(Nc3ncc(C(F)(F)F)c(Nc4nccs4)n3)ccc2N1 [Compound 58] |
| > 6.70 | CNC(=O)c1ccccc1Nc1ccnc(Nc2cc(OC)c(OC)c(OC)c2)n1 [Compound 60] |
| > 6.70 | N#CCc1cccc(Nc2nc(Nc3ccc4c(c3)CCC(=O)N4)ncc2C(F)(F)F)c1 [Compound 61] |
| > 6.70 | O=C1CCc2cc(Nc3ncc(C(F)(F)F)c(SCc4ccccc4)n3)ccc2N1 [Compound 62] |
| < 5.70 | O=C1CCc2cc(Nc3ncc(C(F)(F)F)c(C#Cc4ccccc4)n3)ccc2N1 [Compound 64] |
| < 5.70 | Cc1cnc(Nc2ccc3c(c2)CCC(=O)N3)nc1NCc1cccc(S(C)(=O)=O)c1 [Compound 67] |

| pIC50 | Structure (SMILES) |
| --- | --- |
| > 6.70 | O=C1CCc2cc(Nc3ncc(C(F)(F)F)c(/C=C/c4ccccc4)n3)ccc2N1 [Compound 69] |
| > 6.70 | CNC(=O)c1ccccc1Nc1nc(Nc2cc(OC)c(OC)c(OC)c2)ncc1/C=C/c1ccccc1 [Compound 71] |
| < 5.70 | O=C1CCc2cc(Nc3ncc(C(F)(F)F)c(-c4ccccc4)n3)ccc2N1 [Compound 72] |
| > 6.70 | CNC(=O)c1ccccc1Nc1nc(Nc2cc(OC)c(OC)c(OC)c2)ncc1-c1ccccc1 [Compound 73] |
| > 6.70 | CNC(=O)c1ccccc1Nc1nc(Nc2ccc3c(c2)CCC(=O)N3)ncc1C(F)(F)F [Compound 76] |
| > 6.70 | COc1cc(N2CCOCC2)ccc1Nc1ncc(Br)c(Nc2ccccc2S(=O)(=O)N(C)C)n1 [Compound 80] |
| > 6.70 | O=C1CCc2cc(Nc3ncc(C(F)(F)F)c(OCc4ccccc4)n3)ccc2N1 [Compound 81] |
| > 6.70 | COc1c(C)cnc(CNc2nc(Nc3ccc4c(c3)CCC(=O)N4)ncc2C(F)(F)F)c1C [Compound 82] |
| > 6.70 | Cc1cccc(Oc2nc(Nc3ccc4c(c3)CCC(=O)N4)ncc2C(F)(F)F)c1C [Compound 83] |
| > 6.70 | CNC(=O)c1ccccc1Nc1nc(Nc2ccc3c(c2)CCC(=O)N3)ncc1-c1ccccc1 [Compound 89] |
| > 6.70 | CNC(=O)c1ccccc1Nc1nc(Nc2cc(N3CCOCC3)cc(N3CCOCC3)c2)ncc1C(F)(F)F [Compound 90] |
| > 6.70 | CNC(=O)c1ccccc1Oc1nc(Nc2cc(OC)c(OC)c(OC)c2)ncc1C(F)(F)F [Compound 92] |
| < 5.70 | CNC(=O)c1ccccc1Oc1nc(Nc2ccccc2)ncc1C(F)(F)F [Compound 99] |
| < 5.70 | CNC(=O)c1ccccc1Oc1nc(Nc2cc(Br)ccc2C)ncc1C(F)(F)F [Compound 100] |
| < 5.70 | CNC(=O)c1ccccc1Oc1nc(Nc2cc(OC)ccc2C)ncc1C(F)(F)F [Compound 101] |
| < 5.70 | CNC(=O)c1ccccc1Oc1nc(Nc2ccc(C)c(Br)c2)ncc1C(F)(F)F [Compound 102] |
| < 5.70 | CNC(=O)c1ccccc1Oc1nc(Nc2ccccc2OC)ncc1C(F)(F)F [Compound 103] |
| < 5.70 | CNC(=O)c1ccccc1Oc1nc(Nc2cc(C)ccc2C)ncc1C(F)(F)F [Compound 104] |
| < 5.70 | CNC(=O)c1ccccc1Oc1nc(Nc2ccc(OC)cc2)ncc1C(F)(F)F [Compound 105a] |
| < 5.70 | COc1ccc(Nc2ncc(C(F)(F)F)c(O)n2)cc1 [Compound 105b] |
| < 5.70 | CNC(=O)c1ccccc1Oc1nc(Nc2ccc(C)cc2Cl)ncc1C(F)(F)F [Compound 107] |
| < 5.70 | CNC(=O)c1ccccc1Oc1nc(Nc2ccc(Cl)c(Cl)c2)ncc1C(F)(F)F [Compound 108a] |
| < 5.70 | Oc1nc(Nc2ccc(Cl)c(Cl)c2)ncc1C(F)(F)F [Compound 108b] |
